Measurements: patent publication US20100120810A1, “COMPOUNDS AND METHODS FOR MODULATING RHO GTPASES” (priority 2007, published 2010)
Where two headings read alike, the source gives them in different places.

How the values were obtained:
Cdc42 = target: T1, Cdc42 (Homo sapiens, UniProt P60953); assay: Nucleotide binding assay: BODIPY-GTP binding to Cdc42; format: biochemical; conditions: final concentration of 50 μM; read-out: Cdc42 % inhibition of BODIPY-GTP binding
T1 construct: GST (N); made in house; host or cells: E. coli BL21 Codon+RIL
Description: (§1) Fluorescence of GTP analog BODIPY-GTP increases when it binds to small G proteins. This property was used to assess ability of compounds to inhibit nucleotide binding to Rac1, Rac1b and Cdc42. 2 μM GST-Rac1 and 6 μg His6-Tiam1-DH/PH were diluted in a buffer containing 20 mM Tris, 50 mM NaCl, and 1 mM MgCl2. This mixture was loaded in a 96-well plate. Fluorescence recording were started (λEx: 485 nm; λEm: 538 nm) using a spectrofluorimeter (Fluoroskan; Thermolab Systems). Assay was initiated by the addition of 2 μM BODIPY-GTP with or without various doses of test compound. Fluorescence values were recorded, and data were processed as follows: background fluorescence (unbound BODIPY-GTP) was retrieved from fluorescence values.
(§2) This assay allows determining whether compounds can inhibit the binding of a fluorescent nucleotide to recombinant small G proteins of interest. The effect of various alkaloid compounds on binding of BODIPY-GTP to Rac1 activated by DH/PH domain of Guanine nucleotide Exchange Factor Tiam1 (Rac1/Tiam1), Rac1b and Cdc42 is described below.

[1] = target: T2, Rac1 activated by DH/PH domain of Guanine nucleotide Exchange Factor Tiam1 (Rac1/Tiam1) (Homo sapiens, UniProt P63000); assay: Nucleotide binding assay: BODIPY-GTP binding to Rac1 activated by Tiam1 DH/PH; format: biochemical; conditions: final concentration of 50 μM; Rac1/Tiam1; read-out: Rac1 % inhibition of BODIPY-GTP binding
T2 construct: made in house; host or cells: E. coli BL21 Codon+RIL
Description: as §1, §2

Rac1b = target: T3, Rac1b (Homo sapiens, UniProt P63000); assay: Nucleotide binding assay: BODIPY-GTP binding to Rac1b; format: biochemical; conditions: final concentration of 50 μM; read-out: Rac1b % inhibition of BODIPY-GTP binding
T3 construct: GST (N); made in house; host or cells: E. coli BL21 Codon+RIL
Description: as §1, §2

RhoA = RhoA (Homo sapiens, UniProt P61586); conditions: cited from earlier work
NIH3T3 and PC-3 cells = conditions: cited from earlier work
HCT116 cell line = assay: Soft agar assay (anchorage-independent colony formation); format: cell-based; conditions: HCT116, 7 days
Excerpt: Colony formation in soft agar is the most widely used assay to evaluate anchorage-independent growth potential and represents one of the best in vitro assays that correlates strongly with in vivo tumorigenic cell growth potential. Normal cells require adherence and spreading onto a solid substratum in order to remain viable and proliferate. In contrast, cancer cell line HCT116 (ATCC clone number CCL-247) lost this requirement and therefore can form proliferating colonies of cells when suspended in a semisolid agar medium. The assay was performed in 24-well plates, using duplicates wells for each compound concentration. Briefly, a 0.5% Bacto™ Agar (BD Biosciences) bottom layer (prepared in HCT116 complete growth medium supplemented or not with the tested compound) was poured first and allowed to harden (0.3 ml per well). HCT116 were trypsinized to generate a uniform single cell suspension. Five×10^3 cells per well were resuspended in 0.3% agar supplemented with complete growth medium, with or without several compound concentrations to form the top layer (0.3 ml per well). HCT116 were allowed to grow for 7 days in these conditions and then analysed for colonies formation. Analysis was performed from pictures taken under a microscope that are representative from 2 different fields of the well. For each field, 2 different focal plans were taken and were merged using ImageJ software. The number of colonies were scored and colonies' size were measured. IC50 were determined for the number and size of colonies using GraphPad Prism (GraphPad) software. Data are mean values of 2 to 3 independent experiments.

T1 sequence (P60953 whole entry, species assumed): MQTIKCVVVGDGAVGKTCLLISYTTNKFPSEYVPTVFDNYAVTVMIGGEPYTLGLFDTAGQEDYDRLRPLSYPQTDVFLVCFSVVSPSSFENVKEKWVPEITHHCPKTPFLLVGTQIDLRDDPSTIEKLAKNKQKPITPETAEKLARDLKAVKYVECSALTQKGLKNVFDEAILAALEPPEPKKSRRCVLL
RhoA, sequence (P61586 whole entry, species assumed): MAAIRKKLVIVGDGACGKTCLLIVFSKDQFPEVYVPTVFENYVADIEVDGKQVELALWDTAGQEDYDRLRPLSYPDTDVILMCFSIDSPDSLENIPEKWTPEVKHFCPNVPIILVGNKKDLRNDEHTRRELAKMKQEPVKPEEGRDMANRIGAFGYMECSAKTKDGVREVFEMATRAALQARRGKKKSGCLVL

Row | inhibition at 50 µM (Cdc42) | inhibition at 50 µM [1] | melting point | inhibition at 50 µM (Rac1b) | SMILES | effect on RhoA activation (RhoA) | effective dose, Rac1-mediated cellular functions (NIH3T3 and PC-3 cells) | IC50 (HCT116 cell line; read-out: Soft agar assay IC50, Clone Number) | IC50 (HCT116 cell line; read-out: Soft agar assay IC50, Clone Size)
1 | 17 ± 3% | 9 ± 2% | 178.8 °C | 19 ± 3% | Cl.Oc1cc2c(cc1O)CN(Cc1cccc(O)c1O)CC2 [Compound 19, 2-(2,3-Dihydroxybenzyl)-6,7-dihydroxy-1,2,3,4-tetrahydroisoquinolinium chloride] | – | – | – | –
2 | – | – | – | – | CCN(CC)CCCC(C)Nc1nc(C)cc(Nc2ccc3nc(C)cc(N)c3c2)n1 (centres unmarked) [NSC 23766, reference compound] | no effect | 50 to 100 µM | 64.2 ± 4.8 µM | 27.9 ± 5 µM
